Data on three molecules can be found in EP1377579B1 (Aventis Pharmaceuticals Inc., priority 2000, dated 2002).

One data set addresses cdk2/cyclin E (Homo sapiens, UniProt P24941). Put plainly: Cyclin-dependent kinase assay, cdk2/cyclin E. The conditions noted are these: CDK2 IC50, nM, GST-pRb substrate, 10 µM ATP.
Data set [1] in a line: Bioavailability experiment in mice given single intravenous cassette doses. The conditions noted are these: for Cls: mice plasma, single intravenous cassette dose; for Conc. in plasma / Conc. (ng/ml) in plasma: mice; for Conc. in plasma: single 15 mg/kg intravenous cassette dose (3 mg/kg/compound), Cassette #3, 24 h, BLQ = below assay quantification limit (approximately 1 ng/ml); for Conc. (ng/ml) in plasma: Cassette #2, single 18 mg/kg intravenous cassette dose, BLQ = below assay quantification limit.
Description: (§2) Male mice are given single intravenous cassette doses of CDK inhibitor compounds.
(§3) Doses are adjusted for the weight of the individual dihydrochloride and trihydrochloride salts. The compounds are stored desiccated within a closed cabinet at room temperature before use. Dose levels are prepared on the morning of each study.
(§4) A single intravenous cassette dose (18 or 15 mg/kg free base) is administered. For each compound, this is equivalent to a dose of approx. 3 mg/kg free base. […] The dose is administered at a volume of 10 ml/kg (total volume of approximately 0.25 ml/animal).
(§5) Male mice (Hsd:ICR (CD-1® SD®), Harlan), each weighing approximately 20 - 30 g at the start of the study. […] Water is available ad libitum throughout the study.
(§6) Dose Administration and Sample Collection: • A single cassette dose of 5-6 compounds is administered by bolus injection into the tail vein over a 10 - 15-second period. […] Whole blood (approximately 0.6 ml/sample) is obtained by cardiac puncture and transferred to 3 ml glass tubes containing 45 U sodium heparin.
(§7) Sample Processing: Plasma: Whole blood is centrifuged at approximately 3,200 rpm for 10 min at approximately 5°C and the plasma (approx. 0.3 ml/sample) is transferred to chilled plastic vials and stored at approx. -70°C until bioanalysis.
(§8) Sample Analysis: Concentrations of each test article in plasma are quantitated by a non-validated method based on LC/MS using the following protocol.
(§9) Samples are removed from the freezer, allowed to thaw at room temperature, and vortexed to insure complete homogenization prior to sample manipulation. Samples are then prepared according to the following scheme: • 1. transfer 48 µL of plasma (blank mouse sample) into a 12 x 75 mm test tube. • 2. add 12 µL of working standard to the blank plasma for standard curve preparation. • 3. […] Inject 25 µL on LC/MS.
(§10) Data Analysis: Concentrations of Compounds in plasma of individual animals are determined by bioanalytics. […] Statistical analyses are limited to simple expressions of variation (mean and standard deviation). The plasma AUC (area-under-curve) is determined by the linear trapezoidal rule. […] All PK parameters are determined by noncompartmental methods using WinNonlin version 3.0 (Pharsight Corp). Plasma vs. time profiles are prepared by Sigma Plot (SPSS, Inc.).

The nature of data set [2]: Red blood cell binding, mouse whole blood. The class given is in vitro ADME. Particulars: 30 minutes at 37°C, 500 ng/ml.
A further data set relates to HL-60 Human Leukemia. Put plainly: HL-60 human leukemia xenograft in nude mice. The class given is in vivo. Also noted: key: tumor volume = ½(a × b²) from caliper diameters, in mm^3. The conditions noted are these: Table 4. In a few lines: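 Subcutaneous HL-60 (5 x10^5 cells) or PC-3 (5 x 10^6 cells) xenografts in nude mice; ip dosing qd 5x/wk from 50–100 mm^3 tumors, at MTD and 1/3 MTD, ~3 wk (HL-60) or ~5 wk (PC-3). Caliper tumor volume ½(a x b2) twice weekly; body weight weekly.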
(In general: A xenograft is tissue or cells of one species grown in another, often human tumour cells in immunodeficient mice.)

The target of the next data set is cdk1/cyclin B (Homo sapiens, UniProt P06493). Put plainly: Cyclin-dependent kinase assay, cdk1/cyclin B. The conditions noted are these: CDK1 IC50, nM, Histone H1, 10 µM ATP.
For a further data set, the target named is cdk4/cyclin D1 (Homo sapiens, UniProt P11802). Put plainly: Cyclin-dependent kinase assay, cdk4/cyclin D1. The class given is biochemical. Particulars: cyclin D1/cdk4; GST-pRb substrate, 10 µM ATP.
The nature of a further data set: in vivo. The conditions noted are these: male, Hsd:ICR (CD-1), mouse, plasma.
For another data set, the system named is PC-3. Put plainly: In vitro proliferation assay (MTT), PC-3. Type of data set: cell-based, human. The conditions noted are these: Homo sapiens, PC-3, MTT assay; value (SD, n) where given; read-out: PC-3 Prostate (IC50 µM). In a few lines:
(§1)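 Cells plated at 1000 to 2500 cells/well, allowed to attach overnight, then exposed to compounds for 3 days. Viable cells estimated by MTT dye, solubilized in DMSO, absorbance at 570 nm; IC50 taken from raw data.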
In general terms: Tetrazolium assays rely on reduction of a dye to a coloured formazan, in cell work by metabolically active cells.

A further data set relates to MDA-MB-435. Put plainly: In vitro proliferation assay (MTT), MDA-MB-435. The conditions noted are these: Homo sapiens, MDA-MB-435, MTT assay; value (SD, n) where given; read-out: MB-435 Breast (IC50 µM). The class given is cell-based, human. In a few lines: as §1
Where [3] appears, read: 3 mg/kg/compound (15 mg/kg Total Dose), Cassette #3.

Chain of cdk1/cyclin B (P06493 whole entry): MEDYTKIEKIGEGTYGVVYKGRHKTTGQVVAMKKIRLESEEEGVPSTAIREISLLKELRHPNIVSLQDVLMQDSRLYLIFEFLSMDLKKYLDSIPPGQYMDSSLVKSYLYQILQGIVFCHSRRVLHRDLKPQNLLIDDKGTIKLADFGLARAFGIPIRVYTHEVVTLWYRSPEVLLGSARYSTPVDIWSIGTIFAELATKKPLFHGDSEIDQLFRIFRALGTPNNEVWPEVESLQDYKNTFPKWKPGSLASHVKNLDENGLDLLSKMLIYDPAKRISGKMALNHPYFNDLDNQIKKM
Chain of cdk1/cyclin B (P14635 whole entry partner): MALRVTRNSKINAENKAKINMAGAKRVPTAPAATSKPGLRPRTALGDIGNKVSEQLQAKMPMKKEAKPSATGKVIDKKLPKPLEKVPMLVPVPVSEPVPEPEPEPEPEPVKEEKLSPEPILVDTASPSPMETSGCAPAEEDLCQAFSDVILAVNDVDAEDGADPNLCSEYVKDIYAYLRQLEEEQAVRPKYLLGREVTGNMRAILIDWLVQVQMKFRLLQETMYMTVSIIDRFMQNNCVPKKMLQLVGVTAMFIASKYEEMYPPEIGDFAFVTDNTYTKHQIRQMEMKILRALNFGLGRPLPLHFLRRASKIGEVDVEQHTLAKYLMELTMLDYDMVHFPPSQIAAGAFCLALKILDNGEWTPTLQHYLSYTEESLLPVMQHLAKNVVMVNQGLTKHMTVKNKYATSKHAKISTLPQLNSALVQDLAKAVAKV
Chain of cdk4/cyclin D1 (P11802 whole entry): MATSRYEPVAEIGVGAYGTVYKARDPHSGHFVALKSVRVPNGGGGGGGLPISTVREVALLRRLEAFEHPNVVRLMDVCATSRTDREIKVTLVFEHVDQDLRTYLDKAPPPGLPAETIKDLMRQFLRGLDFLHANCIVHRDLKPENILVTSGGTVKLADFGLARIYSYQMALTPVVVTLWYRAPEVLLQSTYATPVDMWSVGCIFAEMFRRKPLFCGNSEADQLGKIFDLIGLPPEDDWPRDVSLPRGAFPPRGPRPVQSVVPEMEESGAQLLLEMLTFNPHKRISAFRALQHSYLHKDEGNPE
Chain of cdk4/cyclin D1 (P24385 whole entry partner): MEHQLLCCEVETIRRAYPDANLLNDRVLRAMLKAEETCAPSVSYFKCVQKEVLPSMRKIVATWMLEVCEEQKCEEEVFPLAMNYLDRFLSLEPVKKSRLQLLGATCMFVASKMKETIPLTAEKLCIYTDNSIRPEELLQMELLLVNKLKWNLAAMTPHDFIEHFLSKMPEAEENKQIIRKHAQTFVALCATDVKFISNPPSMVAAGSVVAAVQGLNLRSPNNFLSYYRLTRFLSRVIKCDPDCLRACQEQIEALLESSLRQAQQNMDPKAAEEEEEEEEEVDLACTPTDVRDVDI
Description for in vivo: as §2, §3, §4, §5, §6, §7, §8, §9, §10

Take `Cl.Cl.N[C@H]1CC[C@H](Nc2nc(NC3CCN(S(=O)(=O)c4cccc(C(F)(F)F)c4)CC3)c3ncn(C4CCCC4)c3n2)CC1` [compound 112, trans-N^2-(4-Amino-cyclohexyl)-9-cyclopentyl-N^6-[1-(3-trifluoromethyl-benzenesulfonyl)-piperidin-4-yl]-9H-purine-2,6-diamine dihydrochloride]: the IC50 against cdk2/cyclin E turned out to be 48 nM. This molecule also showed a Cls in data set [1] (setting [3]) of 34.2 mL/min/kg. Also, the Conc. in plasma entry in data set [1] is recorded as “BLQ”. Moreover, the “Mean Red Blood Cell to Plasma Ratio” value in data set [2] turned out to be 2.4. In addition, the “HL60 Mean Vol. ± SD” value in the data set on HL-60 Human Leukemia (dose 0.3 mg/kg ip) stood at 5413 ± 2845. Besides, the “HL60 Mean Vol. ± SD” value in the data set with HL-60 Human Leukemia (dose 1 mg/kg ip) amounted to 4170 ± 3111. This molecule also came in with an IC50 on cdk1/cyclin B of 32 nM. This molecule displayed an IC50 against cdk4/cyclin D1 of 224 nM. In the data set “in vivo” (intravenous, 3 mg/kg), this molecule displayed a concentration at 0.083 h of 2810 ± 272 ng/mL, a concentration at 0.25 h of 1700 ± 312 ng/mL, a concentration at 0.5 h of 435 ± 48 ng/mL and a concentration at 1 h of 175 ± 42.4 ng/mL. In “in vivo” (intravenous, 3 mg/kg), the concentration at 3 h was 45 ± 7.2 ng/mL, the concentration at 6 h was found to be 17.7 ± 1.7 ng/mL and the concentration at 8 h came out at 13.6 ± 3.7 ng/mL. Also, in “in vivo” (iv, 3 mg/kg), the AUC(0-inf) is 1460 ng·h/mL, the highest level (Cmax) was 2810 ng/mL and the half-life was 2.8 h. Further, the IC50 in the data set with PC-3 was found to be 0.16 µM. The IC50 with MDA-MB-435 came out at 0.87 µM.
Turning to `Cl.Cl.N[C@H]1CC[C@H](Nc2nc(NC3CCN(C(=O)Nc4ccc(C(F)(F)F)cc4)CC3)c3ncn(C4CCCC4)c3n2)CC1` [compound 149, trans-4-[2-(4-Amino-cyclohexylamino)-9-cyclopentyl-9H-purin-6-ylamino]-piperidine-1-carboxylic acid (4-trifluoromethyl-phenyl)-amide dihydrochloride], inhibition against cdk2/cyclin E was half-maximal at 51 nM (IC50). The molecule also returned a Cls in [1] (setting [3]) of 49.1 mL/min/kg. Besides, the Conc. in plasma result in data set [1] is listed as “BLQ”. The “Mean Red Blood Cell to Plasma Ratio” value in [2] is 3.4. In the data set on HL-60 Human Leukemia (dose 1 mg/kg ip), the “HL60 Mean Vol. ± SD” value was determined as 4010 ± 2371. Also, the “HL60 Mean Vol. ± SD” value in the data set on HL-60 Human Leukemia (dose 3 mg/kg ip) came to 2505 ± 2104. The same molecule returned an IC50 against cdk1/cyclin B of 30 nM. On cdk4/cyclin D1, this molecule returned an IC50 of 91 nM. In the data set “in vivo” (intravenous, 3 mg/kg), the concentration at 0.083 h worked out at 3110 ± 703 ng/mL, the concentration at 0.25 h turned out to be 419 ± 69.8 ng/mL, the concentration at 0.5 h is 133 ± 10.2 ng/mL and the concentration at 1 h stood at 59.8 ± 17.3 ng/mL. Further, in “in vivo” (intravenous, 3 mg/kg), the concentration at 3 h was determined as 15.5 ± 4.8 ng/mL, the concentration at 6 h turned out to be 4.1 ± 2.1 ng/mL and the concentration at 8 h worked out at 5.4 ± 0.5 ng/mL. In “in vivo” (iv, 3 mg/kg), this molecule gave an AUC(0-inf) of 1020 ng·h/mL, a Cmax of 3110 ng/mL and a half-life of 1.6 h. Besides, the IC50 with PC-3 was found to be 0.26 µM. In the data set with MDA-MB-435, the IC50 was determined as 0.15 µM.
At cdk2/cyclin E, `CCOC(=O)c1ccc(NC(=O)N2CCC(Nc3nc(N[C@H]4CC[C@H](N)CC4)nc4c3ncn4C3CCCC3)CC2)cc1.Cl.Cl` [compound 154, trans-4-[(1-{4-[2-(4-Amino-cyclohexylamino)-9-cyclopentyl-9H-purin-6-ylamino]-piperidin-1-yl}-methanoyl)-amino]-benzoic acid ethyl ester dihydrochloride] had an IC50 of 30 nM. Besides, the “Conc. (ng/ml) in plasma” value in data set [1] (8 h, Mean ± SD) is “BLQ^a”. Further, the “Conc. (ng/ml) in plasma” value in data set [1] (24 h) is given as “BLQ^a”. This molecule also returned a Cls in [1] (3 mg/kg/compound (18 mg/kg Total Dose), Cassette #2) of 31.6 mL/min/kg. Also, in data set [2], the “Mean Red Blood Cell to Plasma Ratio” value worked out at 17.8. Moreover, in the data set on HL-60 Human Leukemia (dose 3 mg/kg ip), the “HL60 Mean Vol. ± SD” value stood at 2641 ± 3024. In addition, the “HL60 Mean Vol. ± SD” value in the data set on HL-60 Human Leukemia (dose 10 mg/kg ip) turned out to be 2950 ± 1929. The molecule further returned an IC50 against cdk1/cyclin B of 11 nM. On cdk4/cyclin D1, this molecule gave an IC50 of 285 nM. In the data set “in vivo” (iv, 3 mg/kg), this molecule gave an AUC(0-inf) of 1580 ng·h/mL, a Cmax of 4850 ng/mL and a half-life of 0.8 h. In the data set “in vivo” (iv, 18 mg/kg), this molecule returned a concentration at 0.083 h of 4850 ± 794 ng/mL, a concentration at 0.25 h of 1130 ± 243 ng/mL, a concentration at 0.5 h of 377 ± 73.2 ng/mL and a concentration at 1 h of 126 ± 12.3 ng/mL. In the data set “in vivo” (iv, 18 mg/kg), the concentration at 3 h turned out to be 8.4 ± 3.1 ng/mL and the concentration at 6 h was found to be 2.3 ± 1.6 ng/mL. In addition, the IC50 in the data set with PC-3 was determined as 0.23 µM. The IC50 with MDA-MB-435 amounted to 0.21 µM.

Broadly, the IC50 is the point on the concentration scale where inhibition reaches its midpoint. Usually AUC(0-inf) stands for total exposure, with the tail of the curve extrapolated. Usually Cmax stands for the peak of the concentration-time curve. One may read the half-life as the time needed for the level to fall by half in the phase considered.
